Results as given in patent US20090239841A1, “Diaryl Ureas as CB1 Antagonists” (priority 2004, published 2009).

Target: T1, hCB1 (Homo sapiens, UniProt P21554)
T1 construct: made in house; host or cells: Sf9 insect cells (baculovirus), P2 membranes
Test: Agonist-induced GTP binding (GTPγ35S) assay at CB1, Example 8
Assay type: biochemical
Details: IC50 at CB1, determined as described in Example 8; read-out: IC50
In short: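 Membranes from Sf9 cells co-expressing hCB1 and heterotrimeric G-protein (10 μg protein) in Tris pH 7.4 buffer with 5 μM GDP. Test compounds (10^−10–10^−5 M) competed against 1 nM CP55,940 with […] GTPγ35S, 60 min at room temperature. Filter-bound radioactivity by scintillation, expressed as percent above basal.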

T1 sequence (P21554 whole entry): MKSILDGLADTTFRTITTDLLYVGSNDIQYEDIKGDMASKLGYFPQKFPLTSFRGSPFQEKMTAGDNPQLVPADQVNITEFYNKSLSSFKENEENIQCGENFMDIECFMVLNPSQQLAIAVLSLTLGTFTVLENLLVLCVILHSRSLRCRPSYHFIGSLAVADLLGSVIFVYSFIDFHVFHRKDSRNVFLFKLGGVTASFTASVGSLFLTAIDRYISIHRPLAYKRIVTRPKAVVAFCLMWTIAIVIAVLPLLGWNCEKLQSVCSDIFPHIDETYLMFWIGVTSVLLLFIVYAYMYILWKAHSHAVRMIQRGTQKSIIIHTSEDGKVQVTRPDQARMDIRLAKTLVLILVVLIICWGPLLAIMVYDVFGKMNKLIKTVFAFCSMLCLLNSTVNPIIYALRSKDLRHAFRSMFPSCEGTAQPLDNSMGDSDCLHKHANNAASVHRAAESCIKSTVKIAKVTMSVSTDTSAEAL

Row | IC50 | Structure (SMILES)
1 | < 2000 nM | CCCc1ccc(NC(=O)Nc2ccc(OC(F)(F)F)cc2)cc1 [Compound 519, 1-(4-propylphenyl)-3-[4-(trifluoromethoxy)phenyl]urea]
2 | < 2000 nM | O=C(Nc1ccc(OC(F)F)cc1)Nc1cccc(Br)c1 [Compound 520, 1-(3-bromophenyl)-3-[4-(difluoromethoxy)phenyl]urea]
3 | < 2000 nM | COc1cccc(NC(=O)Nc2ccc(C(C)C)cc2)c1 [Compound 521, 1-(4-isopropylphenyl)-3-(3-methoxyphenyl)urea]
4 | < 2000 nM | COc1ccc(NC(=O)Nc2ccc(C(C)C)cc2)cc1 [Compound 522, 1-(4-isopropylphenyl)-3-(4-methoxyphenyl)urea]
5 | < 2000 nM | CCCc1ccc(NC(=O)Nc2cccc(OC)c2)cc1 [Compound 524, 1-(3-methoxyphenyl)-3-(4-propylphenyl)urea]
6 | < 2000 nM | CCCc1ccc(NC(=O)Nc2ccc(OC)cc2)cc1 [Compound 525, 1-(4-methoxyphenyl)-3-(4-propylphenyl)urea]
7 | < 2000 nM | CCCc1ccc(NC(=O)Nc2ccc(OCC)cc2)cc1 [Compound 526, 1-(4-ethoxyphenyl)-3-(4-propylphenyl)urea]
8 | < 2000 nM | CCc1ccc(NC(=O)Nc2cccc([N+](=O)[O-])c2)cc1 [Compound 527, 1-(4-ethylphenyl)-3-(3-nitrophenyl)urea]
9 | < 2000 nM | CC(C)c1ccc(NC(=O)Nc2ccc([N+](=O)[O-])cc2)cc1 [Compound 528, 1-(4-isopropylphenyl)-3-(4-nitrophenyl)urea]
10 | < 2000 nM | CCCc1ccc(NC(=O)Nc2ccc([N+](=O)[O-])cc2)cc1 [Compound 529, 1-(4-nitrophenyl)-3-(4-propylphenyl)urea]
11 | < 2000 nM | CCOc1cccc(NC(=O)Nc2ccc(OC(F)(F)F)cc2)c1 [Compound 531, 1-(3-ethoxyphenyl)-3-[4-(trifluoromethoxy)phenyl]urea]
12 | < 2000 nM | CCCOc1ccc(NC(=O)Nc2ccccc2OC(F)F)cc1 [Compound 534, 1-[2-(difluoromethoxy)phenyl]-3-(4-propoxyphenyl)urea]
13 | < 2000 nM | CCCOc1ccc(NC(=O)Nc2ccc(OC(F)(F)F)cc2)cc1 [Compound 535, 1-(4-propoxyphenyl)-3-[4-(trifluoromethoxy)phenyl]urea]
14 | < 2000 nM | CC(C)Oc1ccc(NC(=O)Nc2ccccc2OC(F)F)cc1 [Compound 537, 1-[2-(difluoromethoxy)phenyl]-3-(4-isopropoxyphenyl)urea]
15 | < 2000 nM | CC(C)Oc1ccc(NC(=O)Nc2ccc(OC(F)(F)F)cc2)cc1 [Compound 538, 1-(4-isopropoxyphenyl)-3-[4-(trifluoromethoxy)phenyl]urea]
16 | < 2000 nM | O=C(Nc1cccc(OC(F)F)c1)Nc1ccccc1OC(F)(F)F [Compound 541, 1-[3-(difluoromethoxy)phenyl]-3-[2-(trifluoromethoxy)phenyl]urea]
17 | < 2000 nM | CCOc1cccc(NC(=O)Nc2ccc(OC)cc2)c1 [Compound 542, 1-(3-ethoxyphenyl)-3-(4-methoxyphenyl)urea]
18 | < 2000 nM | CCOc1ccc(NC(=O)Nc2cccc(OCC)c2)cc1 [Compound 543, 1-(3-ethoxyphenyl)-3-(4-ethoxyphenyl)urea]
19 | < 2000 nM | COCc1ccc(NC(=O)Nc2ccc(OC)cc2)cc1 [Compound 545, 1-[4-(methoxymethyl)phenyl]-3-(4-methoxyphenyl)urea]
20 | < 2000 nM | COc1cccc(NC(=O)Nc2cccc(OC(C)C)c2)c1 [Compound 548, 1-(3-isopropoxyphenyl)-3-(3-methoxyphenyl)urea]
21 | < 2000 nM | COc1ccc(NC(=O)Nc2cccc(OC(C)C)c2)cc1 [Compound 549, 1-(3-isopropoxyphenyl)-3-(4-methoxyphenyl)urea]
22 | < 2000 nM | CCOc1ccc(NC(=O)Nc2cccc(OC(C)C)c2)cc1 [Compound 550, 1-(4-ethoxyphenyl)-3-(3-isopropoxyphenyl)urea]
23 | < 2000 nM | COc1ccc(NC(=O)Nc2cccc(OC(F)F)c2)cc1 [Compound 554, 1-[3-(difluoromethoxy)phenyl]-3-(4-methoxyphenyl)urea]
24 | < 2000 nM | COc1cccc(NC(=O)Nc2ccc([N+](=O)[O-])cc2)c1 [Compound 556, 1-(3-methoxyphenyl)-3-(4-nitrophenyl)urea]
25 | < 2000 nM | CCOc1cccc(NC(=O)Nc2ccc([N+](=O)[O-])cc2)c1 [Compound 558, 1-(3-ethoxyphenyl)-3-(4-nitrophenyl)urea]
26 | < 2000 nM | COCc1ccc(NC(=O)Nc2ccc([N+](=O)[O-])cc2)cc1 [Compound 561, 1-[4-(methoxymethyl)phenyl]-3-(4-nitrophenyl)urea]
27 | < 2000 nM | O=C(Nc1cccc(OC(F)F)c1)Nc1cccc([N+](=O)[O-])c1 [Compound 565, 1-[3-(difluoromethoxy)phenyl]-3-(3-nitrophenyl)urea]
28 | < 2000 nM | COCc1cccc(NC(=O)Nc2ccc(C(C)C)cc2)c1 [Compound 571, 1-(4-isopropylphenyl)-3-[3-(methoxymethyl)phenyl]urea]
29 | < 2000 nM | COCc1ccc(NC(=O)Nc2ccc(C(C)C)cc2)cc1 [Compound 572, 1-(4-isopropylphenyl)-3-[4-(methoxymethyl)phenyl]urea]

Second part, the molecule before the results:

Row | Structure (SMILES) | IC50
30 | CCc1ccc(NC(=O)Nc2ccc(OC(F)(F)F)cc2)cc1 [Compound 517, 1-(4-ethylphenyl)-3-[4-(trifluoromethoxy)phenyl]urea] | < 2000 nM
31 | CC(C)c1ccc(NC(=O)Nc2ccc(OC(F)F)cc2)cc1 [Compound 518, 1-[4-(difluoromethoxy)phenyl]-3-(4-isopropylphenyl)urea] | < 2000 nM
32 | COc1ccc(NC(=O)Nc2ccc(OC(F)F)cc2)cc1 [Compound 530, 1-[4-(difluoromethoxy)phenyl]-3-(4-methoxyphenyl)urea] | < 2000 nM
33 | CCOc1ccc(NC(=O)Nc2ccc(OC(F)(F)F)cc2)cc1 [Compound 532, 1-(4-ethoxyphenyl)-3-[4-(trifluoromethoxy)phenyl]urea] | < 2000 nM
34 | COCc1ccc(NC(=O)Nc2ccc(OC(F)F)cc2)cc1 [Compound 533, 1-[4-(difluoromethoxy)phenyl]-3-[4-(methoxymethyl)phenyl]urea] | < 2000 nM
35 | CC(C)Oc1cccc(NC(=O)Nc2ccc(OC(F)(F)F)cc2)c1 [Compound 536, 1-(3-isopropoxyphenyl)-3-[4-(trifluoromethoxy)phenyl]urea] | < 2000 nM
36 | O=C(Nc1cccc(OC(F)F)c1)Nc1ccccc1OC(F)F [Compound 539, 1-[2-(difluoromethoxy)phenyl]-3-[3-(difluoromethoxy)phenyl]urea] | < 2000 nM
37 | O=C(Nc1ccc(OC(F)(F)F)cc1)Nc1cccc(OC(F)F)c1 [Compound 540, 1-[3-(difluoromethoxy)phenyl]-3-[4-(trifluoromethoxy)phenyl]urea] | < 2000 nM
38 | COCc1ccc(NC(=O)Nc2cccc(OC)c2)cc1 [Compound 544, 1-[4-(methoxymethyl)phenyl]-3-(3-methoxyphenyl)urea] | < 2000 nM
39 | CCCOc1ccc(NC(=O)Nc2cccc(OC)c2)cc1 [Compound 546, 1-(3-methoxyphenyl)-3-(4-propoxyphenyl)urea] | < 2000 nM
40 | CCCOc1ccc(NC(=O)Nc2ccc(OC)cc2)cc1 [Compound 547, 1-(4-methoxyphenyl)-3-(4-propoxyphenyl)urea] | < 2000 nM
41 | COc1cccc(NC(=O)Nc2ccc(OC(C)C)cc2)c1 [Compound 551, 1-(4-isopropoxyphenyl)-3-(3-methoxyphenyl)urea] | < 2000 nM
42 | COc1ccc(NC(=O)Nc2ccc(OC(C)C)cc2)cc1 [Compound 552, 1-(4-isopropoxyphenyl)-3-(4-methoxyphenyl)urea] | < 2000 nM
43 | COc1cccc(NC(=O)Nc2cccc(OC(F)F)c2)c1 [Compound 553, 1-[3-(difluoromethoxy)phenyl]-3-(3-methoxyphenyl)urea] | < 2000 nM
44 | CCOc1ccc(NC(=O)Nc2cccc(OC(F)F)c2)cc1 [Compound 555, 1-[3-(difluoromethoxy)phenyl]-3-(4-ethoxyphenyl)urea] | < 2000 nM
45 | COc1ccc(NC(=O)Nc2ccc([N+](=O)[O-])cc2)cc1 [Compound 557, 1-(4-methoxyphenyl)-3-(4-nitrophenyl)urea] | < 2000 nM
46 | CCOc1ccc(NC(=O)Nc2cccc([N+](=O)[O-])c2)cc1 [Compound 559, 1-(4-ethoxyphenyl)-3-(3-nitrophenyl)urea] | < 2000 nM
47 | CCOc1ccc(NC(=O)Nc2ccc([N+](=O)[O-])cc2)cc1 [Compound 560, 1-(4-ethoxyphenyl)-3-(4-nitrophenyl)urea] | < 2000 nM
48 | CCCOc1ccc(NC(=O)Nc2ccc([N+](=O)[O-])cc2)cc1 [Compound 562, 1-(4-nitrophenyl)-3-(4-propoxyphenyl)urea] | < 2000 nM
49 | CC(C)Oc1cccc(NC(=O)Nc2ccc([N+](=O)[O-])cc2)c1 [Compound 563, 1-(3-isopropoxyphenyl)-3-(4-nitrophenyl)urea] | < 2000 nM
50 | CC(C)Oc1ccc(NC(=O)Nc2ccc([N+](=O)[O-])cc2)cc1 [Compound 564, 1-(4-isopropoxyphenyl)-3-(4-nitrophenyl)urea] | < 2000 nM
51 | O=C(Nc1ccc([N+](=O)[O-])cc1)Nc1cccc(OC(F)F)c1 [Compound 566, 1-[3-(difluoromethoxy)phenyl]-3-(4-nitrophenyl)urea] | < 2000 nM
52 | O=C(Nc1ccc(OC(F)F)cc1)Nc1cccc([N+](=O)[O-])c1 [Compound 568, 1-[4-(difluoromethoxy)phenyl]-3-(3-nitrophenyl)urea] | < 2000 nM
53 | O=C(Nc1ccc(OC(F)F)cc1)Nc1ccc([N+](=O)[O-])cc1 [Compound 569, 1-[4-(difluoromethoxy)phenyl]-3-(4-nitrophenyl)urea] | < 2000 nM
54 | CCOc1cccc(NC(=O)Nc2ccc(C(C)C)cc2)c1 [Compound 570, 1-(3-ethoxyphenyl)-3-(4-isopropylphenyl)urea] | < 2000 nM
55 | CCCOc1ccc(NC(=O)Nc2ccc(C(C)C)cc2)cc1 [Compound 573, 1-(4-isopropylphenyl)-3-(4-propoxyphenyl)urea] | < 2000 nM
